These results are taken from patent US20070054902A1, “Isoxazole derivatives as peroxisome proliferator-activated receptors agonists” (SHIONOGI & CO., LTD., priority 2003, published 2007).

Series [1] addresses T1, human PPARδ (hPPARδ) (Homo sapiens, UniProt Q03181).
T1 construct: δ:aa 139-C-end; expressed in transfected cells
T1 sequence (Q03181 139-441 limits assumed): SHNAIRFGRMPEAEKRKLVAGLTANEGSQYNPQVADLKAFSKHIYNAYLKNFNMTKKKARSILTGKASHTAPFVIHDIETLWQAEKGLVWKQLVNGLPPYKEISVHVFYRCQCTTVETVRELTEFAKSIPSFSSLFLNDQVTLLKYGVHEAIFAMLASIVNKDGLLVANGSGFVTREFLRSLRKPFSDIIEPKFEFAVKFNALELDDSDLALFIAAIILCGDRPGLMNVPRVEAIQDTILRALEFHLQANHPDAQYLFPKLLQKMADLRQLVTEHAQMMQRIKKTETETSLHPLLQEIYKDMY
In words: Test for transcriptional activity of PPARδ (GAL4 chimeric transcription-factor reporter assay in CHO cells). The conditions noted are these: GAL4-hPPARδ LBD chimeric reporter in CHO cells. The format is cell-based. The source says:
A chimeric transcription-factor assay, which is commonly used to detect nuclear receptor activity, was employed to measure PPAR transcriptional activity. Specifically, two plasmids, one that expresses the fusion protein of DNA binding domain of yeast transcription factor GAL4 and a ligand binding domain of a receptor, and a reporter plasmid were transiently transfected to CHO cells. The activity of the promoter containing a recognition sequence of GAL4 coded on the reporter plasmid was used as a parameter to estimate the activity of the receptor.
Then, each obtained cDNA-fragment was subcloned into pBIND vector (Promega) to construct a plasmid expressing the fusion protein with DNA binding domain of yeast transcription factor. GAL4. pG51uc vector (Promega) was used as a reporter plasmid.
Cell culturing and transfection: CHO cells were cultured in 10% FBS-αMEM. With a 96-well plate (Costar), CHO cells, that were dispersed with trypsin treatment, 20000 cells per well and the two plasmids obtained by the above procedure, 25 ng per well, were transfected with FuGene Reagent (Roche) by following the instruction of the manufacture.
Measurement of the transcriptional activity: CHO cells 100 μl per well, which were transfected as above, were dispensed into the wells in which a test compound dissolved in DMSO 0.5 μl was spotted in advance. After the cells and a test compound were cultured together for 24 hours in a CO2 incubator, the luciferase activity was measured by adding luciferase substrates, PicaGene LT2.0 (Toyo ink) 100 μl per well. LUMINOUS CT9000D (DIA-IATRON) is used to measure the activity.
(In general: A reporter such as luciferase makes a cellular process visible.)

In series [2] the target is T2, CYP2C9 (Homo sapiens, UniProt P11712).
T2 construct: the protein concentration, 0.25 mg/ml (human liver microsomes, 15 pol, Lot. 210296, XenoTech); tissue XenoTech Lot; 210296; host or cells: human liver microsomes (pooled)
T2 sequence (P11712 whole entry): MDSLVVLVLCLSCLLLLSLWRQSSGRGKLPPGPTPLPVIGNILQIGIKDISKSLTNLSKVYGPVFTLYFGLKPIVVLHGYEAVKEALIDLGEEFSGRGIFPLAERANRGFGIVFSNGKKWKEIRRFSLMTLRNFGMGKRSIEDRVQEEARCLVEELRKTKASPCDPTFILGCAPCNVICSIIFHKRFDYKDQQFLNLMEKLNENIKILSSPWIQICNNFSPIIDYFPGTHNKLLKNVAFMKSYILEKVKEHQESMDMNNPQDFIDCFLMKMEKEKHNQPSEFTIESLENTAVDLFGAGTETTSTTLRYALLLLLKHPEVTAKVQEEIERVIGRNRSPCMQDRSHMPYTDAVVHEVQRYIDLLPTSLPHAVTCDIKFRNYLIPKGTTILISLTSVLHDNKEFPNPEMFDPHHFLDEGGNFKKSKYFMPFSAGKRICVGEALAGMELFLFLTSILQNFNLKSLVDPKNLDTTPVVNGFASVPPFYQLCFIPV
The series is described as follows: Test for inhibition of CYP2C9 enzyme (tolbutamide 4-position hydration, human liver microsomes). The format is in vitro ADME. The note with it: pH 7.4, probe tolbutamide (14C labeled), 5 µM, human liver microsomes 0.25 mg/ml, 5 μM tolbutamide, 37° C., solvent control = 100%, read-out: Residual activity (%) CYP2C9. How it is done: The reaction condition is as below. A substrate, 5 μM Tolbutamide (14C labeled compound); the reaction time, 30 minutes; the reaction temperature, 37° C.; the protein concentration, 0.25 mg/ml (human liver microsomes, 15 pol, Lot. 210296, XenoTech).
To the HEPES Buffer (pH 7.4), is added the protein (human liver microsomes), a drug solution and a substrate with the composition as the above. NADPH, which is a coenzyme of the reaction, is added thereto to start the reaction. After reacting for the fixed hours, 2N hydrochloric acid solution is added thereto and the reaction is stopped by removing protein. The remaining substrate drug and the generating metabolite are extracted with chloroform. The solvent is removed and the residue is redissolved in methanol. This solution was spotted on TLC, developed with chloroform:methanol: acetic acid=90:10:1, contacted on the imaging plate for about 14-20 hours and analyzed by BAS2000. As to the generation activity of the metabolite, Tolbutamide 4-potition hydration body, the activity in case that the solvent dissolving a drug is added to the reaction assay is used as a control (100%). The residual activity (%) in case that the test drug solution is added to the reaction is calculated.
A general note: Microsomes from liver hold many membrane-bound enzymes, among them those of drug oxidation.

The mark [3] stands for this setting: 24 hours, concentration showing 1/2 of maximum luciferase activity (Table 166).

As for `COCc1c(COc2ccc(OCC(=O)O)c(C)c2)noc1-c1ccc(C(F)(F)F)cc1` [α-5-1, {4-[4-Methoxymethyl-5-(4-trifluoromethylphenyl)-isoxazole-3-ylmethoxy]-2-methyl-phenoxy}-acetic acid], the melting point is 105 to 107 °C.

In turn, `COC(=O)COc1ccc(C(=O)CCc2noc(-c3ccc(C(F)(F)F)cc3)c2C)cc1C` [α-6-3-1, (2-Methyl-4-{3-[4-methyl-5-(4-trifluoromethylphenyl)-isoxazole-3-yl]-propionyl}-phenoxy)-acetic acid methyl ester] came in with a melting point of 133 to 134 °C.

As for `Cc1cc(C(=O)CCc2noc(-c3ccc(C(F)(F)F)cc3)c2C)ccc1OCC(=O)O` [α-6-4-1, (2-Methyl-4-{3-[4-methyl-5-(4-trifluoromethylphenyl)-isoxazole-3-yl]-propionyl}-phenoxy)-acetic acid], the melting point lay in the range of 191 to 194 °C.

For `Cc1cc(SCc2noc(-c3ccc(C(F)(F)F)cc3)c2C)ccc1Cc1noc(=O)[nH]1` [α-7-3-1, 3-[2-methyl-4-[4-methyl-5-(4-trifluoromethylphenyl)isoxazole-3-ylmethylsulfanil]benzil]-4H-[1,2,4]oxadiazole-5-on], the melting point lay within 203 to 204.5 °C. In series [1] (setting [3]), the EC50 was found to be 9.5 nM.

The compound `Cc1cc(SCc2noc(-c3ccc(C(F)(F)F)cc3)c2C)ccc1OCC(=O)O` [β-1-3] registered a melting point of 129 to 131 °C. Moreover, in series [1] (setting [3]), the response was half-maximal at 9.9 nM (EC50).

In the case of `Cc1cc(SCc2noc(-c3ccc(Cl)cc3)c2C)ccc1OCC(=O)O` [β-1-8], the melting point was 157 to 159 °C. In series [1] (setting [3]), this compound came in with an EC50 of 11 nM.

Compound `COCc1c(CSc2ccc(OCC(=O)O)c(C)c2)noc1-c1ccc(C(F)(F)F)cc1` [β-1-15] came in with a melting point of 105 to 107 °C. In series [1] (setting [3]), this compound yielded a concentration for a half-maximal effect (EC50) of 1.5 nM.

In turn, `Cc1c(COc2ccc(C=CC(=O)O)cc2F)noc1-c1ccc(C(F)(F)F)cc1` [β-2-15, 3-{3-Fluoro-4-[4-methyl-5-(4-trifluoromethylphenyl)isoxazole-3-ylmethoxy]phenyl}acrylic acid] displayed a melting point of 261 to 262.5 °C.

For `Cc1cc(SCc2cc(-c3ccc(C(F)(F)F)cc3)on2)ccc1/C=C/C(=O)O` [β-2-38], the melting point is 179.5 to 181.5 °C. Further, in series [2], the activity at 30 min stood at 47%. This compound also returned an EC50 in series [1] (24 hours (Table 168)) of 35 nM.

With `Cc1c(COc2ccc3c(ccn3CC(=O)O)c2)noc1-c1ccc(C(F)(F)F)cc1` [β-3-1, {5-[4-Methyl-5-(4 trifluoromethylphenyl)isoxazole-3-ylmethoxy]indole-1-yl}acetic acid], the melting point lay in the range of 159 to 160 °C.

For `Cc1c(CSc2ccc3c(ccn3CC(=O)O)c2)noc1-c1ccc(C(F)(F)F)cc1` [β-4-1, {5-[4-Methyl-5-(4-trifluoromethylphenyl)isoxazole-3-ylmethylsulfanil]indole-1-yl}acetic acid], the melting point fell in the range of 139 to 141 °C. Further, the midpoint of the response in series [1] (setting [3]), the EC50, lay at 16 nM.

Turning to `Cc1c(CSc2ccc(-c3sccc3C(=O)O)cc2)noc1-c1ccc(C(F)(F)F)cc1` [β-5-1, 2-{4-[4-Methyl-5-(4-trifluoromethylphenyl)isoxazole-3-ylmethylsulfanil]phenyl}thiophene-3-carboxylic acid], the melting point fell in the range of 139 to 141 °C. For the same compound, the EC50 in series [1] (setting [3]) came out at 14 nM.

For orientation: melting point means the temperature of the solid-liquid transition. In general, EC50 refers to the midpoint of the concentration-response curve. Low readings indicate an effect from little substance, high ones a need for much substance.
